≈ marks a conversion by molar mass, not a printed value.
Legend:
Mus musculus = conditions: chronic; duration: 103 weeks; oral; diet; mortality
Rattus norvegicus = conditions: oral
Pontoscolex corethrurus = conditions: acute; mortality
Daphnia magna = conditions: acute; mortality
[1] = chronic, duration: 103 weeks, diet, histopathology: neoplastic

## CC1CCC(C(C)C)C(O)C1 (stereo unspecified) [Menthol]
Mus musculus
  NOAEL: 600 mg/kg-day
Rattus norvegicus; [1]
  NOAEL: 375 mg/kg-day

## CC(=O)/C=C/C1C(C)=CCCC1(C)C (stereo not drawn) [alpha-Ionone]
Rattus norvegicus; subchronic, duration: 13 weeks, diet, M/F, food consumption
  NOAEL: 10 mg/kg-day

## CC(=O)O[C@@H]1C[C@H]2CC[C@]1(C)C2(C)C [Isobornyl acetate]
Rattus norvegicus; subchronic, duration: 13 weeks, gavage, M/F, organ weight
  NOAEL: 15 mg/kg-day

## CC(=O)OC1CCCCC1 [Cyclohexyl acetate]
Pontoscolex corethrurus
  LC50: 1150 mg/kg

## CCCCCC1C(=O)CCC1CC(=O)OC (stereo unspecified) [Methyl dihydrojasmonate]
Pontoscolex corethrurus
  LC50: 1430 mg/kg
Rattus norvegicus; subchronic, duration: 13 weeks, diet, M/F, Sprague-Dawley, no effects
  NOAEL: 100 mg/kg-day

## CC(=O)O[C@@H]1C[C@H](C)CC[C@H]1C(C)C (racemic) [dl-Menthyl acetate]
Mus musculus
  NOAEL: 600 mg/kg-day
Rattus norvegicus; [1]
  NOAEL: 375 mg/kg-day

## CC(=O)/C=C/C1C(C)=CCC(C)C1(C)C (stereo not drawn) [alpha-Irone]
Daphnia magna
  LC50: 0.513 mg/L (≈ 2.49 µM)

## CC(=O)/C=C/C1=C(C)CCCC1(C)C [beta-Ionone]
Rattus norvegicus; subchronic, duration: 13 weeks, diet, M/F, body weight
  NOAEL: 10 mg/kg-day
